Assays:
[1] = target: T1, Substance-P receptor (Homo sapiens, UniProt P25103); assay: Binding affinity towards Neurokinin -1(NK-1) receptor of human by using [125I]- Tyr8 substance P as a radioligand in CHO cells; type: cell-based
[2] = target: T1, Substance-P receptor; details: CHO
Description: Dissociation constant towards Neurokinin -1(NK-1) receptor of human by using [125I]- Tyr8 substance P as a radioligand in CHO cells

T1 sequence (P25103 whole entry): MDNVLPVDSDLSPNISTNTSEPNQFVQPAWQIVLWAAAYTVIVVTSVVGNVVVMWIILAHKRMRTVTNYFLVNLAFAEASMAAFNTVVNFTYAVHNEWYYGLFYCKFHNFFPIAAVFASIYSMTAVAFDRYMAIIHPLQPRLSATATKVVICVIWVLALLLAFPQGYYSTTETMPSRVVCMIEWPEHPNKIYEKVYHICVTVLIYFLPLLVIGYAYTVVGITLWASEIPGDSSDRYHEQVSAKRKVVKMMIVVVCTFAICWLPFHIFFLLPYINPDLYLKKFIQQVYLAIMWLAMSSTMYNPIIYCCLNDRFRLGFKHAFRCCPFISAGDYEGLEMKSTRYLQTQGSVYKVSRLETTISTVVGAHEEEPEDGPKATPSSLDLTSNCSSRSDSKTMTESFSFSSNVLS

| IC50 [1] | pKa [2] | Structure (SMILES) |
| --- | --- | --- |
| 881 nM | – | FC(F)(F)c1cc(CO[C@H]2CCCO[C@H]2c2ccccc2)cc(C(F)(F)F)c1 |
| ≥ 157 nM | – | NC(=O)C[C@@H]1CCC[C@@H](OCc2cc(C(F)(F)F)cc(C(F)(F)F)c2)[C@H]1c1ccccc1 |
| 2630 nM | – | FC(F)(F)c1cc(CO[C@H]2CCCC[C@H]2c2ccccc2)cc(C(F)(F)F)c1 |
| – | 8.3 | FC(F)(F)c1cc(CO[C@H]2CCCN[C@H]2c2ccccc2)cc(C(F)(F)F)c1 |
| 14 nM | – | CN1CCC[C@H](OCc2cc(C(F)(F)F)cc(C(F)(F)F)c2)[C@@H]1c1ccccc1 |
| 1.5 nM | – | NC(=O)C[C@H]1CCC[C@H](OCc2cc(C(F)(F)F)cc(C(F)(F)F)c2)[C@@H]1c1ccccc1 (stereo in doubt; 22) |
| 34 nM | – | O=C(NCc1cccnc1)NC[C@H]1CCC[C@H](OCc2cc(C(F)(F)F)cc(C(F)(F)F)c2)[C@@H]1c1ccccc1 |
| 7 nM | – | O=C(C[C@H]1CCC[C@H](OCc2cc(C(F)(F)F)cc(C(F)(F)F)c2)[C@@H]1c1ccccc1)NCc1ccncc1 |
| 17 nM | – | OC(COCc1cc(C(F)(F)F)cc(C(F)(F)F)c1)C(c1ccccc1)c1ccccc1 (configuration not stated) |
| 3 nM | – | NC(=O)C[C@H]1CCC[C@H](OCc2cc(C(F)(F)F)cc(C(F)(F)F)c2)[C@@H]1c1ccccc1 (stereo in doubt; 19a) |
| 6.7 nM | – | NC(=O)NC[C@H]1CCC[C@H](OCc2cc(C(F)(F)F)cc(C(F)(F)F)c2)[C@@H]1c1ccccc1 |
| 3.7 nM | – | O=C(C[C@H]1CCC[C@H](OCc2cc(C(F)(F)F)cc(C(F)(F)F)c2)[C@@H]1c1ccccc1)NCc1cccnc1 |
